Test results from patent US20190290650A1, “FORMULATIONS/COMPOSITIONS COMPRISING A BTK INHIBITOR” (Janssen Pharmaceutic NV, priority 2016, published 2019).
Where two headings read alike, the source gives them in different places.

Experiments:
[1] = general statement, no test described; cited from earlier work
OCI-Ly10 = assay: Growth inhibition of OCI-Ly10 (ABC-DLBCL) cells; type: cell-based; conditions: Homo sapiens
Excerpt: See U.S. Pat. No. 7,711,492 and Staudt et al., Nature, Vol. 463, Jan. 7, 2010, pp. 88-92, the contents of which are incorporated by reference in their entirety.

- EC50 (OCI-Ly10; continuous exposure, read-out: EC50 continuous exposure (growth of OCI-Ly10)): 10 nM
- EC50 (OCI-Ly10; read-out: EC50 1 hour pulse (growth of OCI-Ly10), 1 hour pulse): 50 nM
SMILES: C=CC(=O)N1CCC[C@@H](n2nc(-c3ccc(Oc4ccccc4)cc3)c3c(N)ncnc32)C1 [Compound 1, 1-((R)-3-(4-amino-3-(4-phenoxyphenyl)-1H-pyrazolo[3,4-d]pyrimidin-1-yl)piperidin-1-yl)prop-2-en-1-one]
- Water solubility [1]: very low water solubility
